Measured values from ChEMBL document CHEMBL2380213, “Conformational restriction approach to BACE1 inhibitors II: SAR study of the isocytosine derivatives fixed with a cis-cyclopropane ring” (Bioorg Med Chem Lett, 2013).

These compounds were tested against Beta-secretase 1 (Homo sapiens, UniProt P56817) (assay: Inhibition of human recombinant BACE1 expressed in Escherichia coli BL21(DE3) using Biotin-XSEVNLDAEFRHDSGC-Eu as substrate after 3 hrs by HTRF assay).
Beta-secretase 1, sequence (P56817 whole entry): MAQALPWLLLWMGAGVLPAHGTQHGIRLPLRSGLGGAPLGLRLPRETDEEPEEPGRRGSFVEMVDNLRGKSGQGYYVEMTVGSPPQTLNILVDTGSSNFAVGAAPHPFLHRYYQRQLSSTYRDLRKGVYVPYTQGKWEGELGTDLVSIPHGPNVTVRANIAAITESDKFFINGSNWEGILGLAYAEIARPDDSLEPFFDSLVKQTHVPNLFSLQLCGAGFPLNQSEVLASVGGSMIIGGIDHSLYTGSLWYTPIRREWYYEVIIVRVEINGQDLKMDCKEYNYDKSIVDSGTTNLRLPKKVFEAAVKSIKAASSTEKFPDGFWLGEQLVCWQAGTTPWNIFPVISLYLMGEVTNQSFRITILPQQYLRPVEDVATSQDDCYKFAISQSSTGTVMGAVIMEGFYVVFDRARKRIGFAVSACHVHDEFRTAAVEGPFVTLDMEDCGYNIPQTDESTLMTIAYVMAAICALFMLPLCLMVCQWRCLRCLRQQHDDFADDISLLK

| IC50 [µM] | Structure (SMILES) |
| --- | --- |
| > 200 | Cn1c(N)nc([C@H]2C[C@H]2c2cccc(/C=C/c3ccccc3)c2)cc1=O |
| > 200 | Cn1c(N)nc([C@H]2C[C@H]2c2cccc(-c3cccc(N)c3)c2)cc1=O |
| > 200 | Cn1c(N)nc([C@H]2C[C@H]2c2cccc(CCCc3ccccc3)c2)cc1=O |
| > 200 | Cc1cccc(CCc2cccc([C@@H]3C[C@@H]3c3cc(=O)n(C)c(N)n3)c2)c1 |
| 39.4 | CCOc1cccc(-c2cccc([C@@H]3C[C@@H]3c3cc(=O)n(C)c(N)n3)c2)c1 |
| 72.4 | Cn1c(N)nc([C@H]2C[C@H]2c2cccc(-c3cccc(F)c3)c2)cc1=O |
| > 200 | Cc1ccc(CCc2cccc([C@@H]3C[C@@H]3c3cc(=O)n(C)c(N)n3)c2)cc1 |
| 74.9 | Cc1cccc(-c2cccc([C@@H]3C[C@@H]3c3cc(=O)n(C)c(N)n3)c2)c1 |
| 22.2 | Cn1c(N)nc([C@H]2C[C@H]2c2cccc(CCc3ccccc3)c2)cc1=O |
| 47.5 | CSc1cccc(-c2cccc([C@@H]3C[C@@H]3c3cc(=O)n(C)c(N)n3)c2)c1 |
| > 200 | Cn1c(N)nc([C@H]2C[C@H]2c2cccc(Cc3ccccc3)c2)cc1=O |
| 84.9 | COc1cncc(-c2cccc([C@@H]3C[C@@H]3c3cc(=O)n(C)c(N)n3)c2)n1 |
| 100 | COc1cccc(CCc2cccc([C@@H]3C[C@@H]3c3cc(=O)n(C)c(N)n3)c2)c1 |
| 120 | Cc1ccccc1CCc1cccc([C@@H]2C[C@@H]2c2cc(=O)n(C)c(N)n2)c1 |
| > 200 | Cn1c(N)nc(CCc2cccc(CCc3ccccc3)c2)cc1=O |
| 30.8 | COc1ccc(-c2cccc([C@@H]3C[C@@H]3c3cc(=O)n(C)c(N)n3)c2)cc1 |
| > 200 | CN(C)c1cccc(-c2cccc([C@@H]3C[C@@H]3c3cc(=O)n(C)c(N)n3)c2)c1 |
| > 200 | Cn1c(N)nc([C@H]2C[C@H]2c2cccc(C#Cc3ccccc3)c2)cc1=O |
